Measured values from ChEMBL document CHEMBL5729129, “Apoptosis signal-regulating kinase 1 (ASK 1) inhibitor compounds” (2022).

Key:
Lysyl oxidase homolog 2 = target: T1, Lysyl oxidase homolog 2 (Homo sapiens, UniProt Q9Y4K0); assay: Amine Oxidase Activity Assay: Table 4: LOXL2 amine oxidase activity was evaluated by measuring Amplex Red fluorescence using 10-20× concentrated conditioned media from CHO cells stably expressing human LOXL2. To assay for amine oxidase activity, 10 μL of the concentrated conditioned media was incubated with 2 μL of test compound in DMSO and 73 μL Assay Buffer (50 mM Borate Buffer, pH8) for 2 h at 37° C. After the 2 h incubation, 5 μL of 10 mM 1,5-Diaminopentane (DAP) diluted in Assay Buffer and 10 μL of Amplex Red Mix (8.5 μL Assay Buffer+0.5 μL of 10 mM Amplex Red+1 μL of 500 U/ml Horseradish Peroxidase) were added and the plate mixed and immediately placed on the FlexStation for fluorescence measurements. Fluorescence was read in kinetic mode every 2 min for 0.5-1 hour at excitation=544 and emission=590. The amine oxidase activity was calculated from the slope of the linear portion of the curve. Wells containing vehicle (DMSO) represented maximum activity and were set to 0% inhibition and wells containing 100 μM βAPN (3-aminopropionitrile) represented no activity and were set to 100% inhibition.
T1 sequence (Q9Y4K0 whole entry): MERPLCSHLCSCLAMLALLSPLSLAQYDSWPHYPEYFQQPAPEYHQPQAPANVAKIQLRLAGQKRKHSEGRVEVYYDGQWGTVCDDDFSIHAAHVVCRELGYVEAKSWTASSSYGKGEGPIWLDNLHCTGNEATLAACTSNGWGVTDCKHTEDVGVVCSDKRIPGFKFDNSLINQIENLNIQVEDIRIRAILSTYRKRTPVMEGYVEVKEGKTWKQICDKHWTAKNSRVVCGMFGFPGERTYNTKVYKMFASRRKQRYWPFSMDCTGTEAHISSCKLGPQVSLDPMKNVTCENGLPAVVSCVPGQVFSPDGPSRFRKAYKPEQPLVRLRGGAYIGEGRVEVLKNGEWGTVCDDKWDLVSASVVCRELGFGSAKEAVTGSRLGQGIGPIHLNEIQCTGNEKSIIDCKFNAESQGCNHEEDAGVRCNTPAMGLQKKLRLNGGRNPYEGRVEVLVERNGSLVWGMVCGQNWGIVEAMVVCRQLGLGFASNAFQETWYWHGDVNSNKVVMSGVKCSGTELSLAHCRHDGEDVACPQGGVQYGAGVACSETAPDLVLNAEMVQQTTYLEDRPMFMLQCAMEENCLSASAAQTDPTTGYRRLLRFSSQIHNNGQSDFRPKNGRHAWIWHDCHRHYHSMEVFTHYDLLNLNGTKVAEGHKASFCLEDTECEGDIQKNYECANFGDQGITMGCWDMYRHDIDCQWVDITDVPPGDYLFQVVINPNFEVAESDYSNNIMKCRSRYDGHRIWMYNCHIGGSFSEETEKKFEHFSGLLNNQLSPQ

[1] = target: T2, Mitogen-activated protein kinase kinase kinase 5 (Homo sapiens, UniProt Q99683); assay: ADP-Glo Assay: Table 3: The ability of test compounds to inhibit ASK1 kinase activity was determined using the luminescent ADP-Glo™ Kinase Assay and Myelin Basic Protein (MBP) as a substrate (Promega Corporation, Madison, Wis.). During the kinase reaction, ASK1 utilizes ATP and generates ADP. The remaining ATP is then depleted by addition of the ADP-Glo™ reagent which also terminates the reaction. Subsequent addition of the Kinase Detection Reagent converts the ADP that was produced during the kinase reaction to ATP, and this newly synthesized ATP is converted to light using the luciferase/luciferin reactions. The assay was performed according to the manufacturer's instructions. Briefly, purified, recombinant ASK1 (amino acids 649-946) (10-20 ng/well) was added to a 384-well, F bottom, small volume, HIbase, white plate (Greiner Bio-One, Monroe, N.C. #784075) containing 1-2 μL 5× test compound or vehicle control (diluted 1:20 from a 100% DMSO stock solution into 1× Reaction Buffer A). The enzyme was allowed to pre-incubate with test compound from 15-120 min at 30° C. before the addition of the ATP/substrate mix (final concentrations of 50 μM ATP+250 ng MBP in 1× Reaction Buffer A). The mixture was then incubated at room temperature for 40 min before the addition of ADP-Glo™ reagent and a second 40 minute room temperature incubation. […]
T2 sequence (Q99683 whole entry): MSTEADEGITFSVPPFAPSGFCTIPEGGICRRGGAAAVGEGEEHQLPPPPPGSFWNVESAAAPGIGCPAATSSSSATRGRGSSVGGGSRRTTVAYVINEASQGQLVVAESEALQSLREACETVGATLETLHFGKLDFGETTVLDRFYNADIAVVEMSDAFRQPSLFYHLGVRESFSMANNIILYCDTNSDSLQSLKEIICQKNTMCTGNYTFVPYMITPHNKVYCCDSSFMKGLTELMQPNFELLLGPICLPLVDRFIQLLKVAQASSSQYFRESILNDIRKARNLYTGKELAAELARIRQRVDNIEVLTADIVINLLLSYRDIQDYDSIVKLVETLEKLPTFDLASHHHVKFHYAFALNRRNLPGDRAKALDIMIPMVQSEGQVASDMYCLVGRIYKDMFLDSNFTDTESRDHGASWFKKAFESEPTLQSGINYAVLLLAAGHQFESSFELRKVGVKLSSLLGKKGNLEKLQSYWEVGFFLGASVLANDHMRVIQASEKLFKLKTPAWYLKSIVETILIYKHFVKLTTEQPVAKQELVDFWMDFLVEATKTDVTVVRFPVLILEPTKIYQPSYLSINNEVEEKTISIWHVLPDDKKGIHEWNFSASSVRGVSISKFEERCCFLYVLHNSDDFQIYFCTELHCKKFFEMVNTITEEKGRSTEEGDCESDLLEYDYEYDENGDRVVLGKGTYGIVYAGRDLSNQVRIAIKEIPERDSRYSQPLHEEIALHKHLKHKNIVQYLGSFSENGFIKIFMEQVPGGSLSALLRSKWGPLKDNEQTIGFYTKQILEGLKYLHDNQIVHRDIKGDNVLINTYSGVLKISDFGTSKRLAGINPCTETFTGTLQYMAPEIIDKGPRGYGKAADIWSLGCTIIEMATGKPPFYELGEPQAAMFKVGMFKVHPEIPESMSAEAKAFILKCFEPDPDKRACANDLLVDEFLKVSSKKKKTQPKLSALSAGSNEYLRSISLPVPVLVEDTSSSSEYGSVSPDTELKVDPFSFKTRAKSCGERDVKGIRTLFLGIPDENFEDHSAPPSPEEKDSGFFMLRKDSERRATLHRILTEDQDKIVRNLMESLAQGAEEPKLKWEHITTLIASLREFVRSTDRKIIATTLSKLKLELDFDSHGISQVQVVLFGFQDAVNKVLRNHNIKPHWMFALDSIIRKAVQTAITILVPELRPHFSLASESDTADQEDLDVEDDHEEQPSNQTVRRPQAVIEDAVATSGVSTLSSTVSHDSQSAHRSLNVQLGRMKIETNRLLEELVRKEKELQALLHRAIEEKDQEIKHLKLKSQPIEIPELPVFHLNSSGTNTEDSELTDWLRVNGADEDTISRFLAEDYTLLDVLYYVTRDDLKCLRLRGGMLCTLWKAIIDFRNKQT

IC50 (Lysyl oxidase homolog 2): < 300 nM | IC50 [1]: > 1000 nM
Structure (SMILES): NCc1cc(Oc2ccnc(C(=O)Nc3cccc(-c4nncn4C4CC4)c3)c2)nc(C(F)(F)F)c1
